According to ChEMBL document CHEMBL1201862, “PubChem BioAssay data set” (2004):
Where “and” joins values, the source holds several entries; their conditions need not be identical. Equal values may be shown once.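 A five-concentration, 48-hour dose response in 96-well plates underlies each endpoint, interpolated linearly between surrounding concentrations. GI50 = concentration required for 50% inhibition of growth.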 Calls of active or inactive are those of the source. No stated cut-off is given here; in the data, active = GI50 up to about 1.1 µM and inactive = higher.

Columns and labels:
Test in all cases: growth of human tumour cells (NCI), 48 h
[1] = system: 786-0
[2] = system: A549
[3] = system: ACHN
[4] = system: CCRF-CEM
[5] = system: DU-145
[6] = system: EKVX
[7] = system: HCC 2998
[8] = system: HL-60
[9] = system: HT-29
[10] = system: KM12
[11] = system: MDA-N
[12] = system: MOLT-4
[13] = system: Malme-3M
[14] = system: NCI/ADR-RES
[15] = system: OVCAR-8
[16] = system: RPMI-8226
[17] = system: SF-268
[18] = system: SK-MEL-5
[19] = system: U-251
[20] = system: NCI-H226

| SMILES | GI50 [1] | GI50 [2] | GI50 [3] | GI50 [4] | GI50 [5] | GI50 [6] | GI50 [7] | GI50 [8] | GI50 [9] | GI50 [10] | GI50 [11] | GI50 [12] | GI50 [13] | GI50 [14] | GI50 [15] | GI50 [16] | GI50 [17] | GI50 [18] | GI50 [19] | GI50 [20] |
| --- | --- | --- | --- | --- | --- | --- | --- | --- | --- | --- | --- | --- | --- | --- | --- | --- | --- | --- | --- | --- |
| COc1cc(/C=C2\N=C(c3ccccc3)N(c3nc4c(OC)ccc(OC)c4s3)C2=O)ccc1O | 39.4 µM (inactive) | 69.3 µM (inactive) | 59.2 µM (inactive) | 28.1 µM (inactive) | 28.8 µM (inactive) | > 100 µM (inactive) | 33.8 µM (inactive) | 36.6 µM (inactive) | > 100 µM (inactive) | 51.2 µM (inactive) | 24.1 µM (inactive) | 16.7 µM (inactive) | 85.7 µM (inactive) | > 100 µM (inactive) | 30.8 µM (inactive) | 23.1 µM (inactive) | 39.1 µM (inactive) | 54.8 µM (inactive) | 29.9 µM (inactive) |  |
| CCOC(=O)/C(=C\NCC(O)c1ccccc1)c1nc2ccccc2[nH]1 (centres undefined) | 27.5 µM (inactive) | 33.7 µM (inactive) | 11 µM (inactive) | 13.6 µM (inactive) | 28.4 µM (inactive) | 21.3 µM (inactive) | 20.4 µM (inactive) | 13.6 µM (inactive) | 21.5 µM (inactive) | 21.6 µM (inactive) | 27.5 µM (inactive) | 11.8 µM (inactive) | 25.6 µM (inactive) | 20.8 µM (inactive) | 23.2 µM (inactive) | 11.3 µM (inactive) | 17.3 µM (inactive) | 11 µM (inactive) |  |  |
| Cc1cc(-c2nc3ccc(F)cc3s2)ccc1N | > 100 µM (inactive) | 42.5 µM (inactive) | 68.2 µM (inactive) | 9.46 µM (inactive) | > 100 µM (inactive) | 56.5 µM (inactive) | 38.9 µM (inactive) |  | > 100 µM (inactive) | > 100 µM (inactive) | > 100 µM (inactive) | > 100 µM (inactive) | > 100 µM (inactive) | > 100 µM (inactive) | > 100 µM (inactive) | 5.6 µM (inactive) | > 100 µM (inactive) | 41.4 µM (inactive) | > 100 µM (inactive) | 59.8 µM (inactive) |
| O=[N+]([O-])c1ccc(OP(=O)(O)OCC2OC(CP(=O)(O)O)C(O)C2O)cc1 (centres undefined) | > 100 µM (inactive) | > 100 µM (inactive) | > 100 µM (inactive) | > 100 µM (inactive) | > 100 µM (inactive) | > 100 µM (inactive) | > 100 µM (inactive) | > 100 µM (inactive) | > 100 µM (inactive) | > 100 µM (inactive) | > 100 µM (inactive) | > 100 µM (inactive) |  | > 100 µM (inactive) | > 100 µM (inactive) |  | > 100 µM (inactive) | > 100 µM (inactive) | > 100 µM (inactive) |  |
| Oc1c(OCc2nnc(CCCCCCCCc3nnc(COc4ccc5ccccc5c4O)n3Nc3ccccc3)n2Nc2ccccc2)ccc2ccccc12 | 13.3 µM (inactive) | 6.46 µM (inactive) | 0.845 µM (active) |  | 14.6 µM (inactive) | 11.6 µM (inactive) | 5.26 µM (inactive) |  | 8.28 µM (inactive) | 3 µM (inactive) | 1.62 µM (inactive) | 12.7 µM (inactive) | 9.33 µM (inactive) | 11 µM (inactive) | 11.2 µM (inactive) | 0.682 µM (active) | 10.7 µM (inactive) | 1.29 µM (inactive) | 12 µM (inactive) | 7.55 µM (inactive) |
| O=C(CCCn1ccnc1[N+](=O)[O-])NCCn1ccnc1 | > 100 µM (inactive) | > 100 µM (inactive) | > 100 µM (inactive) | > 100 µM (inactive) | > 100 µM (inactive) |  | > 100 µM (inactive) | > 100 µM (inactive) | > 100 µM (inactive) | > 100 µM (inactive) | > 10 µM (inactive) | > 100 µM (inactive) | > 100 µM (inactive) | > 100 µM (inactive) | > 100 µM (inactive) |  | > 100 µM (inactive) | > 100 µM (inactive) | > 100 µM (inactive) | > 100 µM (inactive) |
| CN1C(=O)CN=C(c2ccccc2F)c2cc(N=C=S)ccc21 | 43.8 µM (inactive) | 33.9 µM (inactive) | 25.5 µM (inactive) | 19.2 µM (inactive) | 86.3 µM (inactive) | > 100 µM (inactive) | 50.8 µM (inactive) | 34.2 µM (inactive) | 34.2 µM (inactive) | 44.6 µM (inactive) | 54.3 µM (inactive) |  | > 100 µM (inactive) | 43.1 µM (inactive) | 47.5 µM (inactive) |  | 67 µM (inactive) |  | 48.4 µM (inactive) |  |
| Cc1ccc(S(=O)(=O)SC/C=C\CSS(=O)(=O)c2ccc(C)cc2)cc1 | 12.2 µM (inactive) and 17.9 µM (inactive) | 31.5 µM (inactive) and 35.7 µM (inactive) | 29.6 µM (inactive) and 25.1 µM (inactive) | 0.262 µM (active) | 16.4 µM (inactive) | > 92.7 µM (inactive) and 53.6 µM (inactive) | 49.1 µM (inactive) and 55 µM (inactive) |  |  | 14.7 µM (inactive) and 17.2 µM (inactive) | 14.4 µM (inactive) |  | 34.7 µM (inactive) and 20.2 µM (inactive) | 52.2 µM (inactive) | 18.9 µM (inactive) and 13.3 µM (inactive) |  | 26.3 µM (inactive) and 19.8 µM (inactive) | 27.6 µM (inactive) and 29.3 µM (inactive) | 15.8 µM (inactive) and 15.9 µM (inactive) | 23.1 µM (inactive) and 24.3 µM (inactive) |
| COC(=O)[C@@H]1[C@@H]2NC(=S)N[C@@]1(C)Oc1ccccc12 | 75.7 µM (inactive) |  | 87.9 µM (inactive) | 61.9 µM (inactive) | 36.3 µM (inactive) | 52.5 µM (inactive) | 41.6 µM (inactive) |  | 28.5 µM (inactive) | 29.7 µM (inactive) | 18.4 µM (inactive) | 0.324 µM (active) | 52 µM (inactive) | 30.2 µM (inactive) | 51.5 µM (inactive) | 48.2 µM (inactive) | 39 µM (inactive) | 42 µM (inactive) | 38.3 µM (inactive) | 91.4 µM (inactive) |
| CCNC(=S)N/N=C/c1cc([N+](=O)[O-])ccc1O | 20.5 µM (inactive) | 33.4 µM (inactive) | 25.8 µM (inactive) | 4.47 µM (inactive) | 83.4 µM (inactive) | 30.4 µM (inactive) | 16.2 µM (inactive) | 11.9 µM (inactive) | 41.8 µM (inactive) | 23.8 µM (inactive) | 46.5 µM (inactive) | 8.73 µM (inactive) | 26.5 µM (inactive) | 21.8 µM (inactive) | 18 µM (inactive) |  | 24.3 µM (inactive) | 10.9 µM (inactive) | 16.9 µM (inactive) | 27.9 µM (inactive) |
| CC(=O)Nc1ccc2cc3[nH]c4cc(NC(C)=O)ccc4c3nc2c1 | > 100 µM (inactive) | > 100 µM (inactive) | > 100 µM (inactive) | 38 µM (inactive) | > 100 µM (inactive) | > 100 µM (inactive) | > 100 µM (inactive) |  | > 100 µM (inactive) | 21.7 µM (inactive) | > 100 µM (inactive) | 24.9 µM (inactive) | > 100 µM (inactive) | > 100 µM (inactive) | > 100 µM (inactive) | > 100 µM (inactive) | > 100 µM (inactive) | > 100 µM (inactive) | 77.4 µM (inactive) | > 100 µM (inactive) |
| C=C(Br)C(Br)(CCl)CCC(Cl)C(C)C.C=C(Cl)C(Br)(CCl)CCC(Cl)C(C)C (centres undefined) | 1.36 µM (inactive) | 14.8 µM (inactive) | 1.74 µM (inactive) | 0.254 µM (active) | 1.65 µM (inactive) | 15.8 µM (inactive) | 3.01 µM (inactive) | 0.413 µM (active) | 1.41 µM (inactive) | 1.83 µM (inactive) | 1.71 µM (inactive) | 0.439 µM (active) | 2.49 µM (inactive) | 1.94 µM (inactive) |  | 0.208 µM (active) | 1.75 µM (inactive) | 1.82 µM (inactive) | 1.75 µM (inactive) | 3.69 µM (inactive) |
| CCC/C(Cl)=N\OC(=O)Nc1ccc(F)c([N+](=O)[O-])c1 | 16.8 µM (inactive) | 24.7 µM (inactive) | 4.97 µM (inactive) | 3.74 µM (inactive) | 14.7 µM (inactive) | 16.2 µM (inactive) | 14.5 µM (inactive) |  | 20.1 µM (inactive) | 16.7 µM (inactive) | 21.1 µM (inactive) | 3.41 µM (inactive) | 10.9 µM (inactive) | 17.9 µM (inactive) | 17.5 µM (inactive) | 9.51 µM (inactive) | 14.2 µM (inactive) | 16.7 µM (inactive) | 18.3 µM (inactive) | 24.2 µM (inactive) |
| COc1cc2c(cc1OC)C1CCc3ccccc3CN1CC2 (centres undefined) | > 100 µM (inactive) | > 100 µM (inactive) | > 100 µM (inactive) | > 100 µM (inactive) | > 100 µM (inactive) | > 100 µM (inactive) | > 100 µM (inactive) | > 100 µM (inactive) | > 100 µM (inactive) | > 100 µM (inactive) | > 100 µM (inactive) | > 100 µM (inactive) | > 100 µM (inactive) | > 100 µM (inactive) | > 100 µM (inactive) |  | > 100 µM (inactive) | > 100 µM (inactive) | > 100 µM (inactive) | > 100 µM (inactive) |
| O=C(O)CCC(/N=C(\C(=N\C(CCC(=O)O)C(=O)O)c1ccccc1)c1ccccc1)C(=O)O (centres undefined) | > 100 µM (inactive) | > 100 µM (inactive) | > 100 µM (inactive) |  | > 100 µM (inactive) | > 100 µM (inactive) | > 100 µM (inactive) |  |  | > 100 µM (inactive) | > 100 µM (inactive) | > 100 µM (inactive) |  | > 100 µM (inactive) | > 100 µM (inactive) | > 100 µM (inactive) | > 100 µM (inactive) |  | > 100 µM (inactive) | > 100 µM (inactive) |
